Test results published in the supplement of paper PMC10307832.

Assays:
Experiment in all cases: relative viability (nuclei count vs DMSO), 5 days (fraction); higher = more cells survive
NCI-H2085 = test system: NCI-H2085
In short: (§1)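 Lung cancer cell lines were seeded in 1536-well plates and dosed by pin tool the next day, with either a single drug or a fixed anchor-drug dose combined with five library-drug doses (not always all listed) spaced in √10 steps. Five days later, one step fixed the cells and stained their nuclei (final 0.05% Triton X-100, 1% formaldehyde, 1 ug/ml Hoechst), and nuclei were counted on 4× images. Relative viability is the nuclei count in treated wells divided by the count in vehicle wells, and each value is the median of duplicate plates.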

NCI-H2347 = test system: NCI-H2347
In short: as §1

COR-L23 = test system: COR-L23
In short: as §1

SW 1573 = test system: SW 1573
In short: as §1

HCC-78 = test system: HCC-78
In short: as §1

NCI-H358 = test system: NCI-H358
In short: as §1

NCI-H650 = test system: NCI-H650
In short: as §1

NCI-H2126 = test system: NCI-H2126
In short: as §1

UMC-11 = test system: UMC-11
In short: as §1

NCI-H2342 = test system: NCI-H2342
In short: as §1

LU99A = test system: LU99A
In short: as §1

PC-14 = test system: PC-14
In short: as §1

NCI-H2023 = test system: NCI-H2023
In short: as §1

LC-2-ad = test system: LC-2-ad
In short: as §1

NCI-H1651 = test system: NCI-H1651
In short: as §1

NCI-H1993 = test system: NCI-H1993
In short: as §1

HARA = test system: HARA
In short: as §1

HCC-15 = test system: HCC-15
In short: as §1

NCI-H1915 = test system: NCI-H1915
In short: as §1

NCI-H1355 = test system: NCI-H1355
In short: as §1

NCI-H838 = test system: NCI-H838
In short: as §1

EPLC-272H = test system: EPLC-272H
In short: as §1

`CC1(C)CCC(c2ccc(Cl)cc2)=C(CN2CCN(c3ccc(C(=O)NS(=O)(=O)c4ccc(N[C@H](CCN5CCOCC5)CSc5ccccc5)c(S(=O)(=O)C(F)(F)F)c4)cc3)CC2)C1` [Navitoclax] + CC(=O)Nc1cccc(-n2c(=O)n(C3CC3)c(=O)c3c(Nc4ccc(I)cc4F)n(C)c(=O)c(C)c32)c1 [Trametinib] (partner 0.02 µM) showed a relative viability (NCI-H2085; first compound 0.005 µM) of 0.567, a relative viability (NCI-H2085; first compound 0.01581 µM) of 0.645 and a relative viability (NCI-H2085; first compound 0.05 µM) of 0.402. It also gave a relative viability (NCI-H2085; first compound 0.1581 µM) of 0.621, a relative viability (NCI-H2085; first compound 0.5 µM) of 0.552 and a relative viability (NCI-H2347; first compound 0.005 µM) of 0.296. The relative viability (NCI-H2347; first compound 0.01581 µM) was 0.314, the relative viability (NCI-H2347; first compound 0.05 µM) was 0.26 and the relative viability (NCI-H2347; first compound 0.1581 µM) was 0.32. For the same molecule, the relative viability (NCI-H2347; first compound 0.5 µM) was 0.259, the relative viability (COR-L23; first compound 0.005 µM) was 0.6 and the relative viability (COR-L23; first compound 0.01581 µM) was 0.601. It also gave a relative viability (COR-L23; first compound 0.05 µM) of 0.514, a relative viability (COR-L23; first compound 0.1581 µM) of 0.577 and a relative viability (COR-L23; first compound 0.5 µM) of 0.61. For the same molecule, the relative viability (SW 1573; first compound 0.005 µM) was 0.623, the relative viability (SW 1573; first compound 0.01581 µM) was 0.5 and the relative viability (SW 1573; first compound 0.05 µM) was 0.654. For the same molecule, the relative viability (SW 1573; first compound 0.1581 µM) was 0.475, the relative viability (SW 1573; first compound 0.5 µM) was 0.474 and the relative viability (HCC-78; first compound 0.005 µM) was 0.653. The relative viability (HCC-78; first compound 0.01581 µM) was 0.826, the relative viability (HCC-78; first compound 0.05 µM) was 0.59 and the relative viability (HCC-78; first compound 0.1581 µM) was 0.727. It also gave a relative viability (HCC-78; first compound 0.5 µM) of 0.727, a relative viability (NCI-H358; first compound 0.005 µM) of 0.131 and a relative viability (NCI-H358; first compound 0.01581 µM) of 0.148. The relative viability (NCI-H358; first compound 0.05 µM) was 0.114, the relative viability (NCI-H358; first compound 0.1581 µM) was 0.133 and the relative viability (NCI-H358; first compound 0.5 µM) was 0.146. It also gave a relative viability (NCI-H650; first compound 0.005 µM) of 0.907, a relative viability (NCI-H650; first compound 0.01581 µM) of 1.2 and a relative viability (NCI-H650; first compound 0.05 µM) of 0.872. For the same molecule, the relative viability (NCI-H650; first compound 0.1581 µM) was 1.09, the relative viability (NCI-H650; first compound 0.5 µM) was 0.878 and the relative viability (NCI-H2126; first compound 0.005 µM) was 0.554. It also gave a relative viability (NCI-H2126; first compound 0.01581 µM) of 0.639, a relative viability (NCI-H2126; first compound 0.05 µM) of 0.638 and a relative viability (NCI-H2126; first compound 0.1581 µM) of 0.524. The relative viability (NCI-H2126; first compound 0.5 µM) was 0.561, the relative viability (UMC-11; first compound 0.005 µM) was 0.658 and the relative viability (UMC-11; first compound 0.01581 µM) was 0.703. For the same molecule, the relative viability (UMC-11; first compound 0.05 µM) was 0.483, the relative viability (UMC-11; first compound 0.1581 µM) was 0.574 and the relative viability (UMC-11; first compound 0.5 µM) was 0.321. It also gave a relative viability (NCI-H2342; first compound 0.005 µM) of 0.8, a relative viability (NCI-H2342; first compound 0.01581 µM) of 0.957 and a relative viability (NCI-H2342; first compound 0.05 µM) of 0.819. For the same molecule, the relative viability (NCI-H2342; first compound 0.1581 µM) was 0.653, the relative viability (NCI-H2342; first compound 0.5 µM) was 0.967 and the relative viability (LU99A; first compound 0.005 µM) was 0.527. The relative viability (LU99A; first compound 0.01581 µM) was 0.597, the relative viability (LU99A; first compound 0.1581 µM) was 0.572 and the relative viability (LU99A; first compound 0.5 µM) was 0.674. For the same molecule, the relative viability (PC-14; first compound 0.005 µM) was 0.804, the relative viability (PC-14; first compound 0.01581 µM) was 1.21 and the relative viability (PC-14; first compound 0.05 µM) was 0.808. For the same molecule, the relative viability (PC-14; first compound 0.1581 µM) was 0.801, the relative viability (PC-14; first compound 0.5 µM) was 0.695 and the relative viability (NCI-H2023; first compound 0.005 µM) was 0.556. The relative viability (NCI-H2023; first compound 0.01581 µM) was 0.724, the relative viability (NCI-H2023; first compound 0.05 µM) was 0.554 and the relative viability (NCI-H2023; first compound 0.1581 µM) was 0.5. For the same molecule, the relative viability (NCI-H2023; first compound 0.5 µM) was 0.547, the relative viability (LC-2-ad; first compound 0.005 µM) was 0.861 and the relative viability (LC-2-ad; first compound 0.01581 µM) was 0.906. It also gave a relative viability (LC-2-ad; first compound 0.05 µM) of 0.813, a relative viability (LC-2-ad; first compound 0.1581 µM) of 0.902 and a relative viability (LC-2-ad; first compound 0.5 µM) of 0.823. For the same molecule, the relative viability (NCI-H1651; first compound 0.005 µM) was 0.822, the relative viability (NCI-H1651; first compound 0.01581 µM) was 0.921 and the relative viability (NCI-H1651; first compound 0.05 µM) was 0.61. For the same molecule, the relative viability (NCI-H1651; first compound 0.1581 µM) was 0.771, the relative viability (NCI-H1651; first compound 0.5 µM) was 0.864 and the relative viability (NCI-H1993; first compound 0.005 µM) was 0.521. For the same molecule, the relative viability (NCI-H1993; first compound 0.01581 µM) was 0.513, the relative viability (NCI-H1993; first compound 0.05 µM) was 0.508 and the relative viability (NCI-H1993; first compound 0.1581 µM) was 0.454. The relative viability (NCI-H1993; first compound 0.5 µM) was 0.642, the relative viability (HARA; first compound 0.005 µM) was 0.44 and the relative viability (HARA; first compound 0.01581 µM) was 0.638. The relative viability (HARA; first compound 0.05 µM) was 0.917, the relative viability (HARA; first compound 0.1581 µM) was 0.587 and the relative viability (HARA; first compound 0.5 µM) was 1.06. For the same molecule, the relative viability (HCC-15; first compound 0.005 µM) was 0.329, the relative viability (HCC-15; first compound 0.01581 µM) was 0.432 and the relative viability (HCC-15; first compound 0.05 µM) was 0.332. The relative viability (HCC-15; first compound 0.1581 µM) was 0.401, the relative viability (HCC-15; first compound 0.5 µM) was 0.35 and the relative viability (NCI-H1915; first compound 0.005 µM) was 0.287. For the same molecule, the relative viability (NCI-H1915; first compound 0.01581 µM) was 0.327, the relative viability (NCI-H1915; first compound 0.05 µM) was 0.297 and the relative viability (NCI-H1915; first compound 0.1581 µM) was 0.314. The relative viability (NCI-H1915; first compound 0.5 µM) was 0.331, the relative viability (NCI-H1355; first compound 0.005 µM) was 0.446 and the relative viability (NCI-H1355; first compound 0.01581 µM) was 0.468. The relative viability (NCI-H1355; first compound 0.05 µM) was 0.408, the relative viability (NCI-H1355; first compound 0.1581 µM) was 0.431 and the relative viability (NCI-H1355; first compound 0.5 µM) was 0.458. The relative viability (NCI-H838; first compound 0.005 µM) was 0.422, the relative viability (NCI-H838; first compound 0.01581 µM) was 0.639 and the relative viability (NCI-H838; first compound 0.05 µM) was 0.51. It also gave a relative viability (NCI-H838; first compound 0.1581 µM) of 0.559, a relative viability (NCI-H838; first compound 0.5 µM) of 0.555 and a relative viability (EPLC-272H; first compound 0.005 µM) of 0.239. It also gave a relative viability (EPLC-272H; first compound 0.05 µM) of 0.272, a relative viability (EPLC-272H; first compound 0.1581 µM) of 0.298 and a relative viability (EPLC-272H; first compound 0.5 µM) of 0.277.
